# Values of other authors as cited in patent publication US20250195564A1, “IRON SUPPLEMENT COMPOSITIONS AND METHODS OF USE THEREOF” (ThermoLife International, LLC, priority 2021, published 2025).
# Details: iron supplementation; without supplementation mean 36±11 days
smiles,measurement,value
O=S(=O)([O-])[O-].[Fe+2] [iron sulfate],time of hemoglobin recovery after blood donation,32 days
